Measurements reported in ChEMBL document CHEMBL2177056, “Bis(arylvinyl)pyrazines, -pyrimidines, and -pyridazines as imaging agents for tau fibrils and β-amyloid plaques in Alzheimer's disease models” (J Med Chem, 2012).
The source made the active and inactive calls. The rule behind the calls is not given here.

What was measured:
[1] = Displacement of thiazene red from amyloid beta (1 to 40) aggregate
[2] = molecular target: T1, Microtubule-associated protein tau (Homo sapiens, UniProt P10636); assay: Binding affinity to extracellular tau plaques in Alzheimer patient brain by fluorescence microscopic analysis
[3] = molecular target: T1, Microtubule-associated protein tau; assay: Displacement of thiazene red from tau aggregate
[4] = molecular target: T1, Microtubule-associated protein tau; assay: Binding affinity to intracellular fibrillar tau in Alzheimer patient brain by fluorescence microscopic analysis; format: cell-based
Mus musculus = assay: Binding affinity to amyloid beta plaque in transgenic mouse brain overexpressing APP Swedish mutant/PS1deltaE9 at 2 mg/kg, ip after 4 hrs by fluorescence microscopic analysis; format: functional, organism-based; set-up: dose 2 mg/kg
[5] = molecular target: Amyloid-beta precursor protein (Homo sapiens) (UniProt P05067); assay: Binding affinity to extracellular amyloid beta plaques in Alzheimer patient brain by fluorescence microscopic analysis
[6] = molecular target: Amyloid-beta precursor protein (Homo sapiens) (UniProt P05067); assay: Binding affinity to intravascular amyloid beta angiopathies in Alzheimer patient brain by fluorescence microscopic analysis
[7] = Lipophilicity, log P of the compound; format: physicochemical; conditions: octanol/water
[8] = Selectivity ratio of IC50 for amyloid beta (1 to 40) aggregate to IC50 for tau aggregate
HepG2 = assay: Cytotoxicity against human HepG2 cells; format: cell-based
[9] = molecular target: T1, Microtubule-associated protein tau; assay: Binding affinity to tau aggregate in Alzheimer patient bowmans gland of olfactory epithelium
[10] = Selectivity ratio of IC50 for tau aggregate to IC50 for amyloid beta (1 to 40) aggregate
[11] = Displacement of methoxy-XO4 from amyloid beta (1 to 40) aggregate

T1 sequence (P10636 whole entry): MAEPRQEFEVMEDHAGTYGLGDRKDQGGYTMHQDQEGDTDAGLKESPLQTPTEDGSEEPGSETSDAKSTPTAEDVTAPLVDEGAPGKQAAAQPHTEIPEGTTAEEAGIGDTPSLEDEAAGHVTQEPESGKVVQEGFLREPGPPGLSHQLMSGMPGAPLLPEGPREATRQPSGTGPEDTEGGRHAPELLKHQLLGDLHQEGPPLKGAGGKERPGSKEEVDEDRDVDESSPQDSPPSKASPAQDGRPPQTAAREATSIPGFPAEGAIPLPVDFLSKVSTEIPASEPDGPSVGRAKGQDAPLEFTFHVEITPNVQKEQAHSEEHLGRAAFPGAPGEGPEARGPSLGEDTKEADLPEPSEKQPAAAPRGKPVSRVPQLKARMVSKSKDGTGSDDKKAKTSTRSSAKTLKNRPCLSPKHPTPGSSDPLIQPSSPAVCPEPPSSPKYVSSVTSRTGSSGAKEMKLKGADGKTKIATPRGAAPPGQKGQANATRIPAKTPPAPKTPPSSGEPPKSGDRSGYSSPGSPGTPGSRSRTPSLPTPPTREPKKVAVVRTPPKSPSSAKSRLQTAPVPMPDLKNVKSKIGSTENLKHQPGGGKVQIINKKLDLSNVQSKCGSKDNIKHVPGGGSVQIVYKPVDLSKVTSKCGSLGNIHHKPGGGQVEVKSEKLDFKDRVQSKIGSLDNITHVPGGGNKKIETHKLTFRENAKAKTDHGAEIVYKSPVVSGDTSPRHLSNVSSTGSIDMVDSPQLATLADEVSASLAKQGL
Chain of Amyloid-beta precursor protein (Homo sapiens) (P05067 whole entry): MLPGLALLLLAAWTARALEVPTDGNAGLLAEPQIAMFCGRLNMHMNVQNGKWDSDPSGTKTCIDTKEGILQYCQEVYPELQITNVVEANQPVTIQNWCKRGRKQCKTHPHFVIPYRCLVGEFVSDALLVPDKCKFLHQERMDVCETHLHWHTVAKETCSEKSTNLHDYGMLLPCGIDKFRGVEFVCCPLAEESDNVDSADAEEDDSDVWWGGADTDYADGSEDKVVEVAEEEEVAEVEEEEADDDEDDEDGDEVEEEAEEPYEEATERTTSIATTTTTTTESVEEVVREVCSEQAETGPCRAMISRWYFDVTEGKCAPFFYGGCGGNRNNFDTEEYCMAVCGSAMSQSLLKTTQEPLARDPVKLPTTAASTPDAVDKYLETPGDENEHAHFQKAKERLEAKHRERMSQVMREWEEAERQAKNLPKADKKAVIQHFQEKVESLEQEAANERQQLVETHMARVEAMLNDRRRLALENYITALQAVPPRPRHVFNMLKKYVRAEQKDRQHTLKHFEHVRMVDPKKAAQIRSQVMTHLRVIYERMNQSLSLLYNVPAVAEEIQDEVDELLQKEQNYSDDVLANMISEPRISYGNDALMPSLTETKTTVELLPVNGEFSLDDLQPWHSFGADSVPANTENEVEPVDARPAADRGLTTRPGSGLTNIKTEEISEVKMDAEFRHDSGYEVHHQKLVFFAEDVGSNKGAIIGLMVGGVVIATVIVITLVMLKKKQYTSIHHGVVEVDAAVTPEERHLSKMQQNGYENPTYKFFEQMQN

Row | Activity [2] | Activity [4] | IC50 ([1]; read-out: IC50) [nM] | IC50 ([3]; read-out: IC50) [nM] | SMILES | also measured
1 | Active | Active | – | – | CN(C)c1ccc(/C=C/c2cnc(/C=C/c3ccc(N(C)C)cc3)cn2)cc1 | Activity (Mus musculus): Active; Activity [5]: Active; Activity [6]: Active
2 | Active | Active | 51 | 42 | CN1CCN(c2ccc(/C=C/c3cnc(/C=C/c4ccc(N5CCN(C)CC5)cc4)cn3)cc2)CC1 | –
3 | Active | Active | – | – | C(=C\c1cnc(/C=C/c2ccc(N3CCCCC3)cc2)cn1)/c1ccc(N2CCCCC2)cc1 | –
4 | Active | Active | 43 | 6 | C(=C\c1cnc(/C=C/c2ccc(N3CCOCC3)cc2)cn1)/c1ccc(N2CCOCC2)cc1 | –
5 | Active | Active | – | – | CC(C)c1ccc(/C=C/c2cnc(/C=C/c3ccc(C(C)C)cc3)cn2)cc1 | IC50 [1]: Not Active; IC50 [3]: Not Active
6 | Active | Active | 54 | 4 | CN(C)c1ccc(/C=C/c2cc(/C=C/c3ccc(N(C)C)cc3)ncn2)cc1 | Activity (Mus musculus): Active; Activity [9]: Active; Ratio IC50 [10]: 13.5; Activity (HepG2): Non-toxic
7 | Active | Active | – | – | C(=C\c1cnc(/C=C/c2ccc(N3CCCC3)cc2)cn1)/c1ccc(N2CCCC2)cc1 | –
8 | Active | Active | 17 | 13 | COc1ccc(/C=C/c2cnc(/C=C/c3ccc(OC)cc3)cn2)cc1 | –

Second part, the compound before the results:

Row | SMILES | Activity [2] | Activity [4] | IC50 ([1]; read-out: IC50) [nM] | IC50 ([3]; read-out: IC50) [nM] | also measured
9 | Cn1cccc1/C=C/c1cc(-c2ccccc2)c(/C=C/c2cccn2C)nn1 | Active | Active | – | – | IC50 [1]: Not Active; IC50 [3]: Not Active
10 | CN1CCN(c2ccc(/C=C/c3cc(/C=C/c4ccc(N5CCN(C)CC5)cc4)ncn3)cc2)CC1 | Active | Active | 2380 | 7470 | –
11 | CN(C)c1ccc(/C=C/c2cc(-c3ccccc3F)c(/C=C/c3ccc(N(C)C)cc3)nn2)cc1 | Active | Active | 10100 | 1250 | –
12 | Cn1cccc1/C=C/c1cnc(/C=C/c2cccn2C)cn1 | Active | Active | – | – | –
13 | COc1cc(/C=C/c2ccc(O)cc2)ccc1/C=C/c1ccc(O)cc1 | – | – | 140 | 246 | logP [7]: 2.6; Ratio IC50 [8]: 1.8
14 | COc1ccc(-c2cc(/C=C/c3ccc(N(C)C)cc3)nnc2/C=C/c2ccc(N(C)C)cc2)cc1 | Active | Active | 4570 | 1590 | –
15 | C(=C\c1cc(/C=C/c2ccc(N3CCCCC3)cc2)ncn1)/c1ccc(N2CCCCC2)cc1 | Active | Active | 156 | 17 | –
16 | C(=C\c1cc(/C=C/c2ccc(N3CCOCC3)cc2)ncn1)/c1ccc(N2CCOCC2)cc1 | Active | Active | – | – | IC50 [1]: Not Active; IC50 [3]: Not Active
17 | C(=C\c1cc(/C=C/c2ccc(N3CCCC3)cc2)ncn1)/c1ccc(N2CCCC2)cc1 | Active | Active | 52 | 2 | Activity (Mus musculus): inactive; Activity (HepG2): Non-toxic
18 | CN(C)c1ccc(/C=C/c2cc(-c3ccccc3)c(/C=C/c3ccc(N(C)C)cc3)nn2)cc1 | Active | Active | – | – | IC50 [1]: Not Active; IC50 [3]: Not Active
19 | C(=C\c1cc(-c2ccccc2)c(/C=C/c2ccc(N3CCOCC3)cc2)nn1)/c1ccc(N2CCOCC2)cc1 | Active | Active | 7590 | 4710 | –
20 | [11CH3]Oc1cc(/C=C/c2ccc(O)cc2)ccc1/C=C/c1ccc(O)cc1 | – | – | – | – | Ki [11]: 26.8 nM
21 | CN(C)c1ccc(/C=C/C=C/c2cc(/C=C/C=C/c3ccc(N(C)C)cc3)ncn2)cc1 | Active | Active | 3 | 2 | –
